By MIC is commonly meant the lowest concentration found to suppress growth. A word on the mortality: it is the percentage killed.

In data set [1] the test system is Candida albicans. The data set is described as follows: Antifungal activity against Candida albicans ATCC 90028 assessed as growth inhibition after 24 hrs by microbroth dilution method. The class given is functional. As to conditions: ATCC 90028, 24 h. Background: Dilution methods test growth across graded concentrations, often in twofold steps.
Data set [2] relates to Pichia kudriavzevii. The experiment in a line: Antifungal activity against Candida krusei assessed as growth inhibition at 250 ug/mL after 24 hrs by hole plate diffusion method. The class given is functional. As to conditions: read-out: IZ.
Data set [3] deals with Candida albicans. The data set is described as follows: Antifungal activity against Candida albicans assessed as growth inhibition after 24 hrs by microbroth dilution method. The class given is functional.
Data set [4] in a line: Cytotoxicity against mouse NIH/3T3 cells assessed as dead cells at 12.5 ug/mL after 72 hrs by Alamar Blue assay relative to control. The class given is cell-based. Conditions: nih3t3, 72 h. (The colour change of resazurin is a common sign of viable cells or microbes.)
Data set [5] concerns Candida tropicalis. The experiment in a line: Antifungal activity against Candida tropicalis assessed as growth inhibition at 250 ug/mL after 24 hrs by hole plate diffusion method. The class given is functional. As to conditions: read-out: IZ.
Data set [6] deals with Pichia kudriavzevii. The experiment in a line: Antifungal activity against Candida krusei assessed as growth inhibition after 24 hrs by microbroth dilution method. The class given is functional.
In data set [7] the test system is Kluyveromyces marxianus. The data set is described as follows: Antifungal activity against Candida kefyr assessed as growth inhibition after 24 hrs by microbroth dilution method. The class given is functional.
The test system of data set [8] is Candida parapsilosis. The data set is described as follows: Antifungal activity against Candida parapsilosis assessed as growth inhibition at 250 ug/mL after 24 hrs by hole plate diffusion method. The class given is functional. Conditions: Lodderomyces parapsilosis, read-out: IZ.
The test system of data set [9] is Candida albicans. The experiment in a line: Antifungal activity against Candida albicans assessed as growth inhibition at 250 ug/mL after 24 hrs by hole plate diffusion method. The class given is functional. As to conditions: read-out: IZ.
A short description of data set [10]: Hemolytic activity in Swiss mouse erythrocytes at 50 ug/mL after 1 hr by spectrophotometric analysis relative to control. The class given is ADME, cell-based, Erythrocyte. Conditions: read-out: Activity.
For data set [11], the system named is Candida parapsilosis. The data set is described as follows: Antifungal activity against Candida parapsilosis assessed as growth inhibition after 24 hrs by microbroth dilution method. The class given is functional. As to conditions: Lodderomyces parapsilosis.
The test system of data set [12] is Candida dubliniensis. The experiment in a line: Antifungal activity against Candida dubliniensis assessed as growth inhibition at 250 ug/mL after 24 hrs by hole plate diffusion method. The class given is functional. As to conditions: read-out: IZ.
The subject of data set [13] is Candida tropicalis. The experiment in a line: Antifungal activity against Candida tropicalis assessed as growth inhibition after 24 hrs by microbroth dilution method. The class given is functional.
Data set [14] has as its system Candida dubliniensis. The experiment in a line: Antifungal activity against Candida dubliniensis assessed as growth inhibition after 24 hrs by microbroth dilution method. The class given is functional.
For data set [15], the system named is Kluyveromyces marxianus. The data set is described as follows: Antifungal activity against Candida kefyr assessed as growth inhibition at 250 ug/mL after 24 hrs by hole plate diffusion method. The class given is functional. Conditions: read-out: IZ.

Values after ≈ are worked out from the molar mass of the structure shown.

`Cc1ccc(C2CC3=C(O2)c2ccccc2C(=O)C3=O)cc1` (stereo not given): the MIC in the data set with Candida albicans [1] worked out at 10.8 µM (≈ 3.13 µg/mL); with Candida albicans [3], 10.8 µM (≈ 3.13 µg/mL); with Pichia kudriavzevii [6] it was 5.39 µM (≈ 1.56 µg/mL); in the data set with Kluyveromyces marxianus [7], 5.39 µM (≈ 1.56 µg/mL); with Candida parapsilosis [11] it was 10.8 µM (≈ 3.13 µg/mL); in the data set with Candida tropicalis [13] it was 43.1 µM (≈ 12.5 µg/mL). The minimal inhibitory concentration (MIC) in the data set on Candida dubliniensis [14] was found to be 2.69 µM (≈ 0.781 µg/mL). Also, the zone of inhibition at 250 µg/mL in the data set on Pichia kudriavzevii [2] is 5.77 mm; in the data set with Candida tropicalis [5] it was 2.26 mm; in the data set with Candida parapsilosis [8], 0 mm; in the data set on Candida albicans [9] it was 0.39 mm; with Candida dubliniensis [12], 6.44 mm; in the data set on Kluyveromyces marxianus [15], 0 mm. The mortality in [4] was determined as 0%. Besides, the hemolysis at 1 h, 50 ug/mL in data set [10] was determined as 5.28%.
Turning to `O=C1C(=O)c2ccccc2C2=C1CC(c1ccc(Cl)cc1)O2` (stereo not given), the MIC in the data set on Candida albicans [1] is 80.5 µM (≈ 25 µg/mL); with Candida albicans [3], 40.2 µM (≈ 12.5 µg/mL); with Pichia kudriavzevii [6], 40.2 µM (≈ 12.5 µg/mL); in the data set on Kluyveromyces marxianus [7], 5.02 µM (≈ 1.56 µg/mL); in the data set with Candida parapsilosis [11], 10.1 µM (≈ 3.12 µg/mL); in the data set on Candida tropicalis [13] it was 20.1 µM (≈ 6.25 µg/mL). Besides, the minimum inhibitory concentration (MIC) with Candida dubliniensis [14] is 40.2 µM (≈ 12.5 µg/mL). Further, the zone of inhibition at 250 µg/mL with Pichia kudriavzevii [2] was found to be 5.65 mm; with Candida tropicalis [5], 2.21 mm; in the data set with Candida parapsilosis [8] it was 6.11 mm; in the data set on Candida albicans [9] it was 1.5 mm; with Candida dubliniensis [12], 9.01 mm; in the data set on Kluyveromyces marxianus [15] it was 1.96 mm. In data set [4], the mortality turned out to be 0%. Further, the hemolysis at 1 h, 50 ug/mL in data set [10] is -1.51%.
As for `O=C1C(=O)c2ccccc2C2=C1CC(c1ccc(F)cc1)O2` (stereo not given), the MIC in the data set on Candida albicans [1] was found to be 85 µM (≈ 25 µg/mL); in the data set with Candida albicans [3], 42.5 µM (≈ 12.5 µg/mL); in the data set on Pichia kudriavzevii [6], 10.6 µM (≈ 3.12 µg/mL); with Kluyveromyces marxianus [7], 42.5 µM (≈ 12.5 µg/mL); with Candida parapsilosis [11], 42.5 µM (≈ 12.5 µg/mL); with Candida tropicalis [13], 42.5 µM (≈ 12.5 µg/mL). In addition, the MIC in the data set on Candida dubliniensis [14] came out at 42.5 µM (≈ 12.5 µg/mL). Further, the zone of inhibition at 250 µg/mL was 9.8 mm with Pichia kudriavzevii [2]; 8.59 mm in the data set with Candida tropicalis [5]; 8.12 mm in the data set with Candida parapsilosis [8]; 1.37 mm in the data set on Candida albicans [9]; 1.7 mm in the data set on Candida dubliniensis [12]; 8.96 mm with Kluyveromyces marxianus [15]. Besides, the mortality in data set [4] was found to be 0%. Besides, in [10], the hemolysis at 1 h, 50 ug/mL is -0.202%.
On to `O=C1C(=O)c2ccccc2C2=C1CC(c1ccc(Br)cc1)O2` (stereo not given), for which the minimum inhibitory concentration (MIC) was determined as 70.4 µM (≈ 25 µg/mL) in the data set on Candida albicans [1]; 35.2 µM (≈ 12.5 µg/mL) in the data set with Candida albicans [3]; 4.39 µM (≈ 1.56 µg/mL) in the data set on Pichia kudriavzevii [6]; 4.39 µM (≈ 1.56 µg/mL) in the data set on Kluyveromyces marxianus [7]; 8.79 µM (≈ 3.12 µg/mL) with Candida parapsilosis [11]; 8.79 µM (≈ 3.12 µg/mL) in the data set on Candida tropicalis [13]. In addition, the minimal inhibitory concentration (MIC) with Candida dubliniensis [14] stood at 2.19 µM (≈ 0.778 µg/mL). Also, the zone of inhibition at 250 µg/mL in the data set on Pichia kudriavzevii [2] was 11.3 mm; in the data set with Candida tropicalis [5], 0 mm; with Candida parapsilosis [8], 7.75 mm; with Candida albicans [9] it was 6.17 mm; with Candida dubliniensis [12], 9.23 mm; in the data set with Kluyveromyces marxianus [15] it was 8.68 mm. In data set [4], the mortality is 0%. For the same compound, the hemolysis at 1 h, 50 ug/mL in data set [10] was determined as 4.59%.
As for `CC1(c2ccccc2)CC2=C(O1)c1ccccc1C(=O)C2=O` (stereo not given), the MIC was determined as 45.2 µM (≈ 13.1 µg/mL) in the data set on Candida albicans [1]; 45.2 µM (≈ 13.1 µg/mL) in the data set on Candida albicans [3]; 22.6 µM (≈ 6.57 µg/mL) in the data set on Pichia kudriavzevii [6]; 11.3 µM (≈ 3.28 µg/mL) with Kluyveromyces marxianus [7]; 45.2 µM (≈ 13.1 µg/mL) in the data set on Candida parapsilosis [11]; 11.3 µM (≈ 3.28 µg/mL) in the data set with Candida tropicalis [13]. Moreover, in the data set on Candida dubliniensis [14], the MIC was determined as 5.65 µM (≈ 1.64 µg/mL). The zone of inhibition at 250 µg/mL in the data set with Pichia kudriavzevii [2] came to 8.52 mm; with Candida tropicalis [5], 3.48 mm; in the data set with Candida parapsilosis [8], 7.34 mm; in the data set on Candida albicans [9] it was 8.41 mm; in the data set with Candida dubliniensis [12] it was 12.9 mm; with Kluyveromyces marxianus [15], 10.1 mm. Moreover, the mortality in data set [4] is 0%. Besides, in [10], the hemolysis at 1 h, 50 ug/mL was -1.2%.
As for `Cc1ccc(C2CC3=C(O2)c2ccccc2C(=O)C3=O)c(C)c1` (stereo not given), the MIC is 82.1 µM (≈ 25 µg/mL) in the data set with Candida albicans [1]; 82.1 µM (≈ 25 µg/mL) in the data set with Candida albicans [3]; 5.13 µM (≈ 1.56 µg/mL) in the data set with Pichia kudriavzevii [6]; 41.1 µM (≈ 12.5 µg/mL) in the data set with Kluyveromyces marxianus [7]; 10.3 µM (≈ 3.12 µg/mL) with Candida parapsilosis [11]; 41.1 µM (≈ 12.5 µg/mL) in the data set on Candida tropicalis [13]. Besides, the minimum inhibitory concentration (MIC) in the data set on Candida dubliniensis [14] was found to be 41.1 µM (≈ 12.5 µg/mL). Further, the zone of inhibition at 250 µg/mL was 10.8 mm with Pichia kudriavzevii [2]; 7.51 mm with Candida tropicalis [5]; 9 mm in the data set on Candida parapsilosis [8]; 2.93 mm with Candida albicans [9]; 4.19 mm in the data set on Candida dubliniensis [12]; 9.28 mm in the data set with Kluyveromyces marxianus [15]. For the same compound, in [4], the mortality worked out at 17%. Further, the hemolysis at 1 h, 50 ug/mL in [10] came out at 4.37%.
`O=C1C(=O)c2ccccc2C2=C1CC1(C=CC=C1)O2`: the MIC was found to be 13.1 µM (≈ 3.28 µg/mL) in the data set on Candida albicans [1]; 6.55 µM (≈ 1.64 µg/mL) in the data set with Candida albicans [3]; 13.1 µM (≈ 3.28 µg/mL) in the data set with Pichia kudriavzevii [6]; 26.2 µM (≈ 6.56 µg/mL) in the data set with Kluyveromyces marxianus [7]; 13.1 µM (≈ 3.28 µg/mL) in the data set with Candida parapsilosis [11]; 3.27 µM (≈ 0.818 µg/mL) with Candida tropicalis [13]. Besides, the MIC in the data set with Candida dubliniensis [14] was determined as 6.55 µM (≈ 1.64 µg/mL). The zone of inhibition at 250 µg/mL in the data set with Pichia kudriavzevii [2] came to 8.8 mm; in the data set with Candida tropicalis [5], 7.19 mm; in the data set on Candida parapsilosis [8], 6.14 mm; with Candida albicans [9], 5.85 mm; in the data set with Candida dubliniensis [12], 18.5 mm; in the data set with Kluyveromyces marxianus [15], 10.7 mm. For the same compound, the mortality in data set [4] is given as 8%. Besides, the hemolysis at 1 h, 50 ug/mL in data set [10] is -1.63%.
As to `CC1(C)CC2=C(O1)c1ccccc1C(=O)C2=O` [NOR-BETA-LAPACHONE], the MIC with Candida albicans [1] turned out to be 110 µM (≈ 25 µg/mL); in the data set with Candida albicans [3], 54.8 µM (≈ 12.5 µg/mL); with Pichia kudriavzevii [6], 110 µM (≈ 25 µg/mL); with Kluyveromyces marxianus [7], 110 µM (≈ 25 µg/mL); with Candida parapsilosis [11], 27.4 µM (≈ 6.25 µg/mL); in the data set on Candida tropicalis [13], 54.8 µM (≈ 12.5 µg/mL). Also, in the data set on Candida dubliniensis [14], the minimal inhibitory concentration (MIC) came to 6.84 µM (≈ 1.56 µg/mL). The zone of inhibition at 250 µg/mL in the data set on Pichia kudriavzevii [2] was found to be 9.01 mm; in the data set with Candida tropicalis [5] it was 4.78 mm; with Candida parapsilosis [8], 7.41 mm; in the data set on Candida albicans [9], 1.64 mm; with Candida dubliniensis [12] it was 0.1 mm; in the data set on Kluyveromyces marxianus [15], 8.27 mm. Also, the mortality in [4] is on record as 11%. In data set [10], the hemolysis at 1 h, 50 ug/mL is -2.4%.

Source of the values: ChEMBL document CHEMBL3217477, “Synthesis and biological evaluation of substituted - and -2,3-dihydrofuran naphthoquinones as potent anticandidal agents” (Medchemcomm, 2010).
